In the NIST ThermoML archive (doi:10.1021/je3002305) one finds refractive index data, which are given here for five molecules.

Numbers after ± are expanded uncertainties.

This series can be described thus: refractive index (Na D-line) (dimensionless). Particulars: 293.1 K; 101.33 kPa; Liquid; Standard Abbe refractometry.

One may read the refractive index as the speed of light in vacuum divided by its phase velocity in the sample. `CCCCCCn1cc[n+](C)c1.F[P-](F)(F)(F)(F)F` [1-hexyl-3-methylimidazolium hexafluorophosphate]: the refractive index is given as 1.4176 ± 0.0008.

Turning to `CCCCCCCCCCCC` [dodecane], the refractive index was 1.4221 ± 0.0008.

Regarding `CCCCc1ccccc1` [butylbenzene], the refractive index is on record as 1.4894 ± 0.0008.

`CCCCn1cc[n+](C)c1.F[P-](F)(F)(F)(F)F` [1-butyl-3-methylimidazolium hexafluorophosphate]: the refractive index stood at 1.4101 ± 0.0008.

`CCCCCCCC[n+]1ccn(C)c1.F[P-](F)(F)(F)(F)F` [1-octyl-3-methylimidazolium hexafluorophosphate]: the refractive index is 1.4231 ± 0.0008.
